Patent publication US12589156B2, “Benzimidazole and benzimidazolone based protac compounds for the targeted degradation of leucine rich repeat kinase 2 (LRRK2)” (Arvinas Operations, Inc., priority 2023, dated 2026)

Target: T1, WT LRRK2 (Homo sapiens, UniProt Q5S007)
T1 construct: endogenous in cells; host or cells: HEK293 (endogenous LRRK2 gene knock-in tagged with HiBit; stably expressing CMV-driven firefly luciferase)
Assay: LRRK2 HiBit degradation assay (Nano-Glo Dual Luciferase) in HEK293 cells with HiBit-tagged endogenous LRRK2
Assay type: cell-based
Procedure, shortened: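 HEK293 cells carrying endogenous C-terminally HiBit-tagged LRRK2 and stably expressing CMV-driven firefly luciferase were treated for 24 h at 37° C with an 11-point 1:3 series from a 1 μM final top concentration. Nano-Glo Dual Luciferase read LRRK2-HiBit against firefly signal. Alamar Blue gave viability, and signals were normalized to DMSO median before curve fitting.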

[1] = HEK293, Table 2, maximal degradation, HiBit-tagged LRRK2 in HEK293 cells, 24 hours treatment
[2] = HEK293, Table 3, comparison with direct comparators, maximal degradation
[3] = Table 2, HiBit-tagged LRRK2 in HEK293 cells, 24 hours treatment, starting concentration 1 μM
[4] = Table 3, comparison with direct comparators, HiBit-tagged LRRK2 in HEK293 cells, 24 hours treatment

T1 sequence (Q5S007 whole entry): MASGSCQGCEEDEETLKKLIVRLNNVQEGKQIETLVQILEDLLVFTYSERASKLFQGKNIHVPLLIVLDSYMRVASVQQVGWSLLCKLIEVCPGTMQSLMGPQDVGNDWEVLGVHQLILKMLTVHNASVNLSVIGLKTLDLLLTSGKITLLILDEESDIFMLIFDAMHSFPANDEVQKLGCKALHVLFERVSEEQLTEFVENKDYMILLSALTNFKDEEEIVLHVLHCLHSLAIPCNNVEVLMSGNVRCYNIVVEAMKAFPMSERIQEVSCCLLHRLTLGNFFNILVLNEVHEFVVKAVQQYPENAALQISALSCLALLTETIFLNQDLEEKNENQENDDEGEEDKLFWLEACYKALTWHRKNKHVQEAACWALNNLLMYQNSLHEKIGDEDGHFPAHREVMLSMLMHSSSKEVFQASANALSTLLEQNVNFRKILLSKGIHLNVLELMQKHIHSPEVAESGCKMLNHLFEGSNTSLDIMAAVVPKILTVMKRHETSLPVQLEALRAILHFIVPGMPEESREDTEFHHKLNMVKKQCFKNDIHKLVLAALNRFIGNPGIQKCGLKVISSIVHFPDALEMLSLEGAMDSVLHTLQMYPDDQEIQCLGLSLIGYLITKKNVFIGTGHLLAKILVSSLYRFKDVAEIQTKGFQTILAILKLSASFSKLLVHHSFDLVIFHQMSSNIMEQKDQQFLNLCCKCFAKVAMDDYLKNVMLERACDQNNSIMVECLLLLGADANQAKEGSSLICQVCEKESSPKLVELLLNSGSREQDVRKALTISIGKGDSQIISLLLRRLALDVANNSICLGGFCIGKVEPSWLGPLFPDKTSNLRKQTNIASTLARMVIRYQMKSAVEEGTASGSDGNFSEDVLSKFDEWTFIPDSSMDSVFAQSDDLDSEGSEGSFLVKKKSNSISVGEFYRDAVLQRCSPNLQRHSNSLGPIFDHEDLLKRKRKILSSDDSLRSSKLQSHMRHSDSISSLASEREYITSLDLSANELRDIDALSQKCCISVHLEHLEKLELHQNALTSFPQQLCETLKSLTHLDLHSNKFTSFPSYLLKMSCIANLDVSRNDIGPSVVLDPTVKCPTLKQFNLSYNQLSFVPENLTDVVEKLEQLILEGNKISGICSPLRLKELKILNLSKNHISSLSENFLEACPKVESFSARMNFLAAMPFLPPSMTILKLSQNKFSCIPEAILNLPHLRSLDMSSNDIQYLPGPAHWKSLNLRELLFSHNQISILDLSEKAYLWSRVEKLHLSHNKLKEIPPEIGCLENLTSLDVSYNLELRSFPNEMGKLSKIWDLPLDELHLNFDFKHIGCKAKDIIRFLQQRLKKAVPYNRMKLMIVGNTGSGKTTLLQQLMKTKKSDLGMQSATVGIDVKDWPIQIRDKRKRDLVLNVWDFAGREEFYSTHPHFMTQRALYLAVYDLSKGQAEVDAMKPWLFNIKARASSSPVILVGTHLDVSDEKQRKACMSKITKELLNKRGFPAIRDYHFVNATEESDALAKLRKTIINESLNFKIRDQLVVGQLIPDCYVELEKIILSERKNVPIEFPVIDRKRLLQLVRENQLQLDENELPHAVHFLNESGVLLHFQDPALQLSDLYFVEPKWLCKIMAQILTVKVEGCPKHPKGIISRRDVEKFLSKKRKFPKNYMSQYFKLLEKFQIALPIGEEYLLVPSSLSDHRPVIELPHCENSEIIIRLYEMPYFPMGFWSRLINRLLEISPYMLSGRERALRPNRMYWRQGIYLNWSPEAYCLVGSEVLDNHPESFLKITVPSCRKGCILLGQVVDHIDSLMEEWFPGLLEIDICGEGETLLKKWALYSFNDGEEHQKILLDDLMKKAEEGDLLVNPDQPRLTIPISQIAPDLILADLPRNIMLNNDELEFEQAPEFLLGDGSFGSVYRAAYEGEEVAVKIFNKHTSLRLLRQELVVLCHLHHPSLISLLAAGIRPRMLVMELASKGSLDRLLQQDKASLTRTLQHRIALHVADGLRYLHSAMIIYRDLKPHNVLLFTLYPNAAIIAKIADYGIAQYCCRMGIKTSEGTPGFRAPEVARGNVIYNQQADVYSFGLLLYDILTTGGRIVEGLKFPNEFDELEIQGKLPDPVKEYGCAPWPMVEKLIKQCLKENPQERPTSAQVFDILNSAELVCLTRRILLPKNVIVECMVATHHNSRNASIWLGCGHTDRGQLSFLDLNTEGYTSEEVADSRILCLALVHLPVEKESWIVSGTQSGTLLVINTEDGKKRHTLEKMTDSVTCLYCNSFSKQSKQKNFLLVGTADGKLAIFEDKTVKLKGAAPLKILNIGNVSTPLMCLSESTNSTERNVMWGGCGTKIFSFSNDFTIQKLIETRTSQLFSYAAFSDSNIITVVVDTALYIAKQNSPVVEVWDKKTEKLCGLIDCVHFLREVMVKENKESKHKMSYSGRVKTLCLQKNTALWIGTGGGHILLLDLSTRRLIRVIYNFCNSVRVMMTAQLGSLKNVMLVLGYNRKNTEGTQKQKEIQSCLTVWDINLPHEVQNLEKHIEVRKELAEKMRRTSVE

Dmax [1] | Dmax [2] | DC50 [3] | DC50 [4] | increase in WT LRRK2 DC50 activity when compared to Comparator Example (versus comparator bearing a 3-(4-methoxy-1-oxoisoindolin-2-yl)piperidine-2,6-dione group) | Structure (SMILES) | WT LRRK2 **Dmax (%) (Table 2, maximal degradation, HiBit-tagged LRRK2 in HEK293 cells, 24 hours treatment)
53% | 53% | 0.14 nM | 0.14 nM | > 40 fold | Cn1c(=O)n(C2CCC(=O)NC2=O)c2ccc(N3CCC(O[C@H]4CC[C@H](CN5CCN(c6cc(-c7n[nH]c8cnc(OC9(C)CC9)cc78)ncn6)CC5)CC4)CC3)cc21 (stereo partly drawn) [Compound 1, 3-[3-methyl-2-oxo-5-(4-{[(1r,4r)-4-[(4-{6-[5-(1-methylcyclopropoxy)-1H-pyrazolo[3,4-c]pyridin-3-yl]pyrimidin-4-yl}piperazin-1-yl)methyl]cyclohexyl]oxy}piperidin-1-yl)-2,3-dihydro-1H-1,3-benzodiazol-1-yl]piperidine-2,6-dione] | 
55% |  | 0.18 nM |  |  | CC(C)n1c(=O)n(C2CCC(=O)NC2=O)c2ccc(N3CCC(CN4CCN(CC5CCN(c6cc(-c7n[nH]c8ccc(OC9(C)CC9)cc78)ncn6)CC5)C(C)(C)C4)CC3)cc21 (stereo not drawn) [Compound 2, 3-{5-[4-({3,3-dimethyl-4-[(1-{6-[5-(1-methylcyclopropoxy)-1H-indazol-3-yl]pyrimidin-4-yl}piperidin-4-yl)methyl]piperazin-1-yl}methyl)piperidin-1-yl]-2-oxo-3-(propan-2-yl)-2,3-dihydro-1H-1,3-benzodiazol-1-yl}piperidine-2,6-dione] | 
30% | 30% | 28 nM | 28 nM |  | CC1(Oc2ccc3[nH]nc(-c4cc(N5CCN(C[C@H]6CC[C@H](OC7CCN(c8cccc9c8ncn9C8CCC(=O)NC8=O)CC7)CC6)CC5)ncn4)c3c2)CC1 (stereo partly drawn) [Compound 3, 3-[4-(4-{[(1r,4r)-4-[(4-{6-[5-(1-methylcyclopropoxy)-1H-indazol-3-yl]pyrimidin-4-yl}piperazin-1-yl)methyl]cyclohexyl]oxy}piperidin-1-yl)-1H-1,3-benzodiazol-1-yl]piperidine-2,6-dione] | 
58% | 58% | 0.17 nM | 0.17 nM |  | Cn1c(=O)n(C2CCC(=O)NC2=O)c2ccc(N3CCC(O[C@H]4CC[C@H](CN5CCN(c6cc(-c7n[nH]c8ccc(OC9(C)CC9)cc78)ncn6)CC5)CC4)CC3)cc21 (stereo partly drawn) [Compound 6, 3-[3-methyl-2-oxo-5-(4-{[(1r,4r)-4-[(4-{6-[5-(1-methylcyclopropoxy)-1H-indazol-3-yl]pyrimidin-4-yl}piperazin-1-yl)methyl]cyclohexyl]oxy}piperidin-1-yl)-2,3-dihydro-1H-1,3-benzodiazol-1-yl]piperidine-2,6-dione] | 
64% |  | 6.4 nM |  |  | CC1(Oc2ccc3[nH]nc(-c4cc(N5CCC(CN6CCN(CC7CCN(c8ccc9ncn(C%10CCC(=O)NC%10=O)c9c8)CC7)CC6)CC5)ncn4)c3c2)CC1 (stereo not drawn) [Compound 7, 3-{6-[4-({4-[(1-{6-[5-(1-methylcyclopropoxy)-1H-indazol-3-yl]pyrimidin-4-yl}piperidin-4-yl)methyl]piperazin-1-yl}methyl)piperidin-1-yl]-1H-1,3-benzodiazol-1-yl}piperidine-2,6-dione] | 
65% | 65% | 1.2 nM | 1.2 nM |  | Cn1c(=O)n(C2CCC(=O)NC2=O)c2cccc(N3CCC(CN4CCN(CC5CCN(c6cc(-c7n[nH]c8ccc(OC9(C)CC9)cc78)ncn6)CC5)C(C)(C)C4)CC3)c21 (stereo not drawn) [Compound 8, 3-{4-[4-({3,3-dimethyl-4-[(1-{6-[5-(1-methylcyclopropoxy)-1H-indazol-3-yl]pyrimidin-4-yl}piperidin-4-yl)methyl]piperazin-1-yl}methyl)piperidin-1-yl]-3-methyl-2-oxo-2,3-dihydro-1H-1,3-benzodiazol-1-yl}piperidine-2,6-dione] | 
66% | 66% | 1.2 nM | 1.2 nM |  | Cn1c(=O)n(C2CCC(=O)NC2=O)c2cccc(N3CCC(O[C@H]4CC[C@H](CN5CCN(c6cc(-c7n[nH]c8ccc(OC9(C)CC9)cc78)ncn6)CC5)CC4)CC3)c21 (stereo partly drawn) [Compound 9, 3-[3-methyl-2-oxo-4-(4-{[(1r,4r)-4-[(4-{6-[5-(1-methylcyclopropoxy)-1H-indazol-3-yl]pyrimidin-4-yl}piperazin-1-yl)methyl]cyclohexyl]oxy}piperidin-1-yl)-2,3-dihydro-1H-1,3-benzodiazol-1-yl]piperidine-2,6-dione] | 
69% |  | 4.5 nM |  |  | CC1(Oc2ccc3[nH]nc(-c4cc(N5CCC(CN6CCN(CC7CCN(c8ccc9ncn(C%10CCC(=O)NC%10=O)c9c8)CC7)CC6(C)C)CC5)ncn4)c3c2)CC1 (stereo not drawn) [Compound 10, 3-{6-[4-({3,3-dimethyl-4-[(1-{6-[5-(1-methylcyclopropoxy)-1H-indazol-3-yl]pyrimidin-4-yl}piperidin-4-yl)methyl]piperazin-1-yl}methyl)piperidin-1-yl]-1H-1,3-benzodiazol-1-yl}piperidine-2,6-dione] | 
62% | 62% | 1.6 nM | 1.6 nM |  | CC1(Oc2ccc3[nH]nc(-c4cc(N5CCC(CN6CCN(CC7CCN(c8ccc9c(c8)ncn9C8CCC(=O)NC8=O)CC7)CC6)CC5)ncn4)c3c2)CC1 (stereo not drawn) [Compound 11, 3-{5-[4-({4-[(1-{6-[5-(1-methylcyclopropoxy)-1H-indazol-3-yl]pyrimidin-4-yl}piperidin-4-yl)methyl]piperazin-1-yl}methyl)piperidin-1-yl]-1H-1,3-benzodiazol-1-yl}piperidine-2,6-dione] | 
64% | 64% | 0.17 nM | 0.17 nM |  | Cn1c(=O)n(C2CCC(=O)NC2=O)c2ccc(N3CCC(CN4CCN(CC5CCN(c6cc(-c7n[nH]c8ccc(OC9(C)CC9)cc78)ncn6)CC5)CC4)CC3)cc21 (stereo not drawn) [Compound 12, 3-{3-methyl-5-[4-({4-[(1-{6-[5-(1-methylcyclopropoxy)-1H-indazol-3-yl]pyrimidin-4-yl}piperidin-4-yl)methyl]piperazin-1-yl}methyl)piperidin-1-yl]-2-oxo-2,3-dihydro-1H-1,3-benzodiazol-1-yl}piperidine-2,6-dione] | 
64% | 64% | 1 nM | 1 nM |  | CC1(Oc2ccc3[nH]nc(-c4cc(N5CCC(CN6CCN(CC7CCN(c8ccc9c(c8)ncn9C8CCC(=O)NC8=O)CC7)CC6(C)C)CC5)ncn4)c3c2)CC1 (stereo not drawn) [Compound 13, 3-{5-[4-({3,3-dimethyl-4-[(1-{6-[5-(1-methylcyclopropoxy)-1H-indazol-3-yl]pyrimidin-4-yl}piperidin-4-yl)methyl]piperazin-1-yl}methyl)piperidin-1-yl]-1H-1,3-benzodiazol-1-yl}piperidine-2,6-dione] | 
58% | 58% | 0.22 nM | 0.22 nM |  | Cn1c(=O)n(C2CCC(=O)NC2=O)c2ccc(N3CCC(CN4CCN(CC5CCN(c6cc(-c7n[nH]c8ccc(OC9(C)CC9)cc78)ncn6)CC5)C(C)(C)C4)CC3)cc21 (stereo not drawn) [Compound 14, 3-{5-[4-({3,3-dimethyl-4-[(1-{6-[5-(1-methylcyclopropoxy)-1H-indazol-3-yl]pyrimidin-4-yl}piperidin-4-yl)methyl]piperazin-1-yl}methyl)piperidin-1-yl]-3-methyl-2-oxo-2,3-dihydro-1H-1,3-benzodiazol-1-yl}piperidine-2,6-dione] | 
59% | 59% | 1.5 nM | 1.5 nM |  | Cn1c(=O)n(C2CCC(=O)NC2=O)c2cccc(N3CCC(CN4CCN(CC5CCN(c6cc(-c7n[nH]c8ccc(OC9(C)CC9)cc78)ncn6)CC5)CC4)CC3)c21 (stereo not drawn) [Compound 15, 3-{3-methyl-4-[4-({4-[(1-{6-[5-(1-methylcyclopropoxy)-1H-indazol-3-yl]pyrimidin-4-yl}piperidin-4-yl)methyl]piperazin-1-yl}methyl)piperidin-1-yl]-2-oxo-2,3-dihydro-1H-1,3-benzodiazol-1-yl}piperidine-2,6-dione] | 
 |  | ≥ 1000 nM |  |  | Cn1c(=O)n(C2CCC(=O)NC2=O)c2cc(N3CCC(CN4CCN(CC5CCN(c6cc(-c7n[nH]c8ccc(OC9(C)CC9)cc78)ncn6)CC5)CC4)CC3)ccc21 (stereo not drawn) [Compound 16, 3-{3-methyl-6-[4-({4-[(1-{6-[5-(1-methylcyclopropoxy)-1H-indazol-3-yl]pyrimidin-4-yl}piperidin-4-yl)methyl]piperazin-1-yl}methyl)piperidin-1-yl]-2-oxo-2,3-dihydro-1H-1,3-benzodiazol-1-yl}piperidine-2,6-dione] | 

Structure (SMILES) | Dmax [1] | Dmax [2] | DC50 [3] | DC50 [4] | increase in WT LRRK2 DC50 activity when compared to Comparator Example (versus comparator bearing a 3-(4-methoxy-1-oxoisoindolin-2-yl)piperidine-2,6-dione group) | WT LRRK2 **Dmax (%) (Table 2, maximal degradation, HiBit-tagged LRRK2 in HEK293 cells, 24 hours treatment)
CC1(Oc2ccc3[nH]nc(-c4cc(N5CCN(CC6CCC(OC7CCN(c8ccc9ncn(C%10CCC(=O)NC%10=O)c9c8)CC7)CC6)CC5)ncn4)c3c2)CC1 (stereo not drawn) [Compound 4, 3-[6-(4-{[(1r,4r)-4-[(4-{6-[5-(1-methylcyclopropoxy)-1H-indazol-3-yl]pyrimidin-4-yl}piperazin-1-yl)methyl]cyclohexyl]oxy}piperidin-1-yl)-1H-1,3-benzodiazol-1-yl]piperidine-2,6-dione] |  |  | 7.5 nM |  |  | 62%
Cn1c(=O)n(C2CCC(=O)NC2=O)c2cc(N3CCC(OC4CCC(CN5CCN(c6cc(-c7n[nH]c8ccc(OC9(C)CC9)cc78)ncn6)CC5)CC4)CC3)ccc21 (stereo not drawn) [Compound 5, 3-[3-methyl-2-oxo-6-(4-{[(1r,4r)-4-[(4-{6-[5-(1-methylcyclopropoxy)-1H-indazol-3-yl]pyrimidin-4-yl}piperazin-1-yl)methyl]cyclohexyl]oxy}piperidin-1-yl)-2,3-dihydro-1H-1,3-benzodiazol-1-yl]piperidine-2,6-dione] |  |  | ≥ 1000 nM |  |  | 
